What was measured:
Test in all cases: radiometric filter-binding kinase assay, Kinase HotSpot
Settings in all cases: compound 0.5 µM; ATP 10 µM
ACVR1B (human) = ACVR1B (human) (UniProt P36896)
AKT2 (human) = AKT2 (human) (UniProt P31751)
AURKC (human) = AURKC (human) (UniProt Q9UQB9)
CDK1 CCNA2 (human) = CDK1 CCNA2 (human) (UniProt P06493+P20248)
CDK4 CCND3 (human) = CDK4 CCND3 (human) (UniProt P30281+P11802)
CDK5 CDK5R1 p25 (human) = CDK5 CDK5R1 p25 (human) (UniProt Q00535+Q15078)
CDK6 CCND1 (human) = CDK6 CCND1 (human) (UniProt Q00534+P24385)
CLK3 (human) = CLK3 (human) (UniProt P49761)
CSNK1D (human) = CSNK1D (human) (UniProt P48730)
CSNK1D (human), sequence (P48730 whole entry, looked up): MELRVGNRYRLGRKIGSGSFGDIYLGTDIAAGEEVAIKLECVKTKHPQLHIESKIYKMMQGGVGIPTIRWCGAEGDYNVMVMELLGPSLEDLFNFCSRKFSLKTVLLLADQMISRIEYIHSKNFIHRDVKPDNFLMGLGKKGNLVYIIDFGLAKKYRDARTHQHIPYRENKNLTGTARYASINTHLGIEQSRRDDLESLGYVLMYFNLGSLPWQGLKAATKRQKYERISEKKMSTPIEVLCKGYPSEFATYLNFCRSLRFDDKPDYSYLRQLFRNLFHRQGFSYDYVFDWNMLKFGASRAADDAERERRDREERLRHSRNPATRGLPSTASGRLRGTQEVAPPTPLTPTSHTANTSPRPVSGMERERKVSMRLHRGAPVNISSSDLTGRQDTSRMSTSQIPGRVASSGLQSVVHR

DAPK2 (human) = DAPK2 (human) (UniProt Q9UIK4)
DDR2 (human) = DDR2 (human) (UniProt Q16832)
EPHA4 (human) = EPHA4 (human) (UniProt P54764)
ERBB2 (human) = ERBB2 (human) (UniProt P04626)
ERBB4 (human) = ERBB4 (human) (UniProt Q15303)
ERBB4 (human), sequence (Q15303 whole entry, looked up): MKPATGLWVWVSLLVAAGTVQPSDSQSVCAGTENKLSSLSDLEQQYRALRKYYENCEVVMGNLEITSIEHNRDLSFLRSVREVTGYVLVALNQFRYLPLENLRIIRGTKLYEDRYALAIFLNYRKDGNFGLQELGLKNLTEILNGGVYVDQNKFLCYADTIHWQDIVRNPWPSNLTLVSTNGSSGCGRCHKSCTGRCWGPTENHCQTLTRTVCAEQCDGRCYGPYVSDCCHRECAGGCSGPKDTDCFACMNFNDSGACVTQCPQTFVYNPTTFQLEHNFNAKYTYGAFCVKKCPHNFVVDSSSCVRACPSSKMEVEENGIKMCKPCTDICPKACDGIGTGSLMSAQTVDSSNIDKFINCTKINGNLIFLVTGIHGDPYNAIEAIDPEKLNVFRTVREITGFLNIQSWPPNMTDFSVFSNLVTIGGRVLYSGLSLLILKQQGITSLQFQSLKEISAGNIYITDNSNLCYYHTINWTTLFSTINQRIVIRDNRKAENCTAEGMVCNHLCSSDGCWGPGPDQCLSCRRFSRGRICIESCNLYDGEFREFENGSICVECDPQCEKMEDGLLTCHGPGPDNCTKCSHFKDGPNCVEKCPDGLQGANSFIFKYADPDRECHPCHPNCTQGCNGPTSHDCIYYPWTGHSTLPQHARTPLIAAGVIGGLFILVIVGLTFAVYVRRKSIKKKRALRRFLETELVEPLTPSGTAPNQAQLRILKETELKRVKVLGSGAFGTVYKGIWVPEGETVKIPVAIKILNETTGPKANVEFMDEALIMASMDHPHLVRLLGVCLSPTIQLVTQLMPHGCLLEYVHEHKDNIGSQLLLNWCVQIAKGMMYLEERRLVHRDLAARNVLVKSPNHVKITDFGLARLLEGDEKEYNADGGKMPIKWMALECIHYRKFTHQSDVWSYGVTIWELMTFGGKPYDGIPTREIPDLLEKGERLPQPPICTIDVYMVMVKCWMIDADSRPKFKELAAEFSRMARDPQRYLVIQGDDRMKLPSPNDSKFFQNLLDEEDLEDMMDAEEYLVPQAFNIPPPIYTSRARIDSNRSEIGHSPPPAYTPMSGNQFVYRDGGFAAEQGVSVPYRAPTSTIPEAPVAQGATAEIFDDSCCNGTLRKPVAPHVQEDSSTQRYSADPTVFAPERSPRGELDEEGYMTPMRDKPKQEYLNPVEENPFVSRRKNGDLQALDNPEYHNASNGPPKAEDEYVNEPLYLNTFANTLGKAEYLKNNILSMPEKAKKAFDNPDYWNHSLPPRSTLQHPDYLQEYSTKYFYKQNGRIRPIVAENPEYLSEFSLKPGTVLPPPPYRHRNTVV

FES (human) = FES (human) (UniProt P07332)
FGR (human) = FGR (human) (UniProt P09769)
KDR (human) = KDR (human) (UniProt P35968)
KIT (human) = KIT (human) (UniProt P10721)
MAP3K2 (human) = MAP3K2 (human) (UniProt Q9Y2U5)
MAP3K7 TAB1 (human) = MAP3K7 TAB1 (human) (UniProt O43318+Q15750)
MAPK1 (human) = MAPK1 (human) (UniProt P28482)
MAPK14 (human) = MAPK14 (human) (UniProt Q16539)
MERTK (human) = MERTK (human) (UniProt Q12866)
NEK11 (human) = NEK11 (human) (UniProt Q8NG66)
PAK3 (human) = PAK3 (human) (UniProt O75914)
PAK3 (human), sequence (O75914 whole entry, looked up): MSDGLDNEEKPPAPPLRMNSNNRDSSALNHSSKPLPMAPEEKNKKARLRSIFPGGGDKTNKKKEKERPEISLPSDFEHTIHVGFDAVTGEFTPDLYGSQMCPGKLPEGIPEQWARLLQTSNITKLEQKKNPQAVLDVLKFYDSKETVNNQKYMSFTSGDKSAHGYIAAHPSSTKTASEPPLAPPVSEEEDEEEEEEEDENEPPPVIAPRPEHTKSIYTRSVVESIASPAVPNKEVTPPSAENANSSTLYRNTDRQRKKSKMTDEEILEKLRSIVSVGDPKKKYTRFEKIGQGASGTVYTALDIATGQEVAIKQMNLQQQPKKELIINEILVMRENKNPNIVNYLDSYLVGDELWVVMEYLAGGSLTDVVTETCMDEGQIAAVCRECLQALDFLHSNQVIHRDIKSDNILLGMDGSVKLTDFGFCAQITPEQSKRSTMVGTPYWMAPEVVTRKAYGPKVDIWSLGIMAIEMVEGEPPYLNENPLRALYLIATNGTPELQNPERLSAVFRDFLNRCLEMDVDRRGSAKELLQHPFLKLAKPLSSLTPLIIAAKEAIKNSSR

PBK (human) = PBK (human) (UniProt Q96KB5)
PDPK1 (human) = PDPK1 (human) (UniProt O15530)
PHKG2 (human) = PHKG2 (human) (UniProt P15735)
PKN2 (human) = PKN2 (human) (UniProt Q16513)
PRKACG (human) = PRKACG (human) (UniProt P22612)
RAF1 (human) = RAF1 (human) (UniProt P04049)
RAF1 (human), sequence (P04049 whole entry, looked up): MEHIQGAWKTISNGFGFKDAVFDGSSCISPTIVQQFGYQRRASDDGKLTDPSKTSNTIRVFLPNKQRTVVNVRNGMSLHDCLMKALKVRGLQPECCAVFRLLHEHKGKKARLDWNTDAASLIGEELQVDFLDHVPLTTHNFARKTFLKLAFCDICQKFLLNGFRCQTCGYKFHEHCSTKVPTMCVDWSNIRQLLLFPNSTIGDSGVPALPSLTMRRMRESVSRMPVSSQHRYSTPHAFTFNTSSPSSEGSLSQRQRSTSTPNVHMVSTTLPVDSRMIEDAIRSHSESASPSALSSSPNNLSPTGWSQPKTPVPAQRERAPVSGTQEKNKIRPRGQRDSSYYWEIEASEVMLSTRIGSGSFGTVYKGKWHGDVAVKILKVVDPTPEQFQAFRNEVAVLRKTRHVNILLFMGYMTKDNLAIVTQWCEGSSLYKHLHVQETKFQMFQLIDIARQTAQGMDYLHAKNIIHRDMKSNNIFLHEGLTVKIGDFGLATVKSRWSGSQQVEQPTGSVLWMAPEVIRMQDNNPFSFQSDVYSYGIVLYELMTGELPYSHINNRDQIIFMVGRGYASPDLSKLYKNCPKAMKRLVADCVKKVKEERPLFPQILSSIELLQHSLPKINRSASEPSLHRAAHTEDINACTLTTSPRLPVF

RET (human) = RET (human) (UniProt P07949)
RPS6KA5 KD2 (human) = RPS6KA5 KD2 (human) (UniProt O75582)
RPS6KB1 (human) = RPS6KB1 (human) (UniProt P23443)
STK11 (human) = STK11 (human) (UniProt Q15831)
STK11 (human), sequence (Q15831 whole entry, looked up): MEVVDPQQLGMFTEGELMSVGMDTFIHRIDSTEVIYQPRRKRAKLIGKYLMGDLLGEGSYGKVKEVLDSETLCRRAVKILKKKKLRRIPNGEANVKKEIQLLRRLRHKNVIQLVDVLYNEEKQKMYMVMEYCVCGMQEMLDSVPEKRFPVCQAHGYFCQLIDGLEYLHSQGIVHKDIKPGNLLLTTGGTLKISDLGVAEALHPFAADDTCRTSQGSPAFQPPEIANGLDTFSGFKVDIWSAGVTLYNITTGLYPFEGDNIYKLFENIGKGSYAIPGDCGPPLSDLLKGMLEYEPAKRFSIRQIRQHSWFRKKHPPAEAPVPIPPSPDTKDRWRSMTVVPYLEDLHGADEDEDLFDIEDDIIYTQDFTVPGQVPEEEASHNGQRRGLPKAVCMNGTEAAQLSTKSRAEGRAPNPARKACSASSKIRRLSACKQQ

TAOK1 (human) = TAOK1 (human) (UniProt Q7L7X3)
TAOK2 (human) = TAOK2 (human) (UniProt Q9UL54)
TEC (human) = TEC (human) (UniProt P42680)
TNK2 (human) = TNK2 (human) (UniProt Q07912)
TNK2 (human), sequence (Q07912 whole entry, looked up): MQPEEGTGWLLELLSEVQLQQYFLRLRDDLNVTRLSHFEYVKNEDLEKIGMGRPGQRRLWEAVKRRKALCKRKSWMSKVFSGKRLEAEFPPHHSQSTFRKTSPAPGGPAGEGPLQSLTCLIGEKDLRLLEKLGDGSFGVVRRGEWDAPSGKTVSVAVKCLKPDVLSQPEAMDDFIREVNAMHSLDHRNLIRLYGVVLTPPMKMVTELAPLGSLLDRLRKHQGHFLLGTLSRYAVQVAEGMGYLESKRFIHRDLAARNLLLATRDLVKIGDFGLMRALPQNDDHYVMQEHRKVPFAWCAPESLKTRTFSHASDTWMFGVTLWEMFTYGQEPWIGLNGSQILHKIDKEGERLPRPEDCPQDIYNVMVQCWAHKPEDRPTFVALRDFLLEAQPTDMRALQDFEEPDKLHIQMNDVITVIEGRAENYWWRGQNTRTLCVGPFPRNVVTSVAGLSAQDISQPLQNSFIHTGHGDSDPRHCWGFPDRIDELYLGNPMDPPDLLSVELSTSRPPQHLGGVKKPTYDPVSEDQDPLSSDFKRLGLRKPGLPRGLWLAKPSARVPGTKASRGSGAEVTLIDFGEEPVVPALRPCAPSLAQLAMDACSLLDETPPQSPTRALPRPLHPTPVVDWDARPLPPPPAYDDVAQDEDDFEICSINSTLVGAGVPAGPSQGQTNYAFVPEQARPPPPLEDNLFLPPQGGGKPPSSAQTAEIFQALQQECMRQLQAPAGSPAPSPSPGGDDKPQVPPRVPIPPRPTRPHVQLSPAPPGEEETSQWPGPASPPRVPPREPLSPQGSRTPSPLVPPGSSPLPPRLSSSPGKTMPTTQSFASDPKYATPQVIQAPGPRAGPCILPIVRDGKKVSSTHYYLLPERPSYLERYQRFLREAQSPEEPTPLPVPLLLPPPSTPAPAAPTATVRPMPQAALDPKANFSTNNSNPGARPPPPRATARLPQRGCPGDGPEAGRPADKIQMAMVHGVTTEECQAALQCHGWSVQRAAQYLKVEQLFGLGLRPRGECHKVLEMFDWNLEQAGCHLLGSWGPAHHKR

TSSK1B (human) = TSSK1B (human) (UniProt Q9BXA7)
VRK1 (human) = VRK1 (human) (UniProt Q99986)
WEE1 (human) = WEE1 (human) (UniProt P30291)
WEE1 (human), sequence (P30291 whole entry, looked up): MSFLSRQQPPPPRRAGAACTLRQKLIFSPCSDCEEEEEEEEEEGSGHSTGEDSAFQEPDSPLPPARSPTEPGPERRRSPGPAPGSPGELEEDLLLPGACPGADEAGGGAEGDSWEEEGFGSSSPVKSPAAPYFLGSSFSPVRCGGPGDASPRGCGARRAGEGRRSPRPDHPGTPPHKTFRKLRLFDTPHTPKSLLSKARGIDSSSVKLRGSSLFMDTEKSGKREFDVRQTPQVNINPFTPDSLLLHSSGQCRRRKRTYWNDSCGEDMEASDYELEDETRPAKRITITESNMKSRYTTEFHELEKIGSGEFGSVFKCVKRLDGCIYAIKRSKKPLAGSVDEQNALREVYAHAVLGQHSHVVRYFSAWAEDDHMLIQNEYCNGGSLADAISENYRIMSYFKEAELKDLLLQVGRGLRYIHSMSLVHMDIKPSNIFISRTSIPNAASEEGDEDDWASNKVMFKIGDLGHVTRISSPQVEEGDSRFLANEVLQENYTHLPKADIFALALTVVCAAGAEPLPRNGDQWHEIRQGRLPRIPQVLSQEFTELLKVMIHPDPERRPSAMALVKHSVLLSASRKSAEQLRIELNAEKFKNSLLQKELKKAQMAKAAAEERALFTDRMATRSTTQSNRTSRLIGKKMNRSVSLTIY

SMILES: Cc1[nH]c(/C=C2\C(=O)Nc3ccc(S(=O)(=O)N(C)c4cccc(Cl)c4)cc32)c(C)c1C(=O)N1CCN(C)CC1
- residual activity (ACVR1B (human)): 102%
- residual activity (AKT2 (human)): 102%
- residual activity (AURKC (human)): 37.9%
- residual activity (CDK1 CCNA2 (human)): 88.7%
- residual activity (CDK4 CCND3 (human)): 101%
- residual activity (CDK5 CDK5R1 p25 (human)): 82%
- residual activity (CDK6 CCND1 (human)): 84.8%
- residual activity (CLK3 (human)): 71.1%
- residual activity (CSNK1D (human)): 83.5%
- residual activity (DAPK2 (human)): 111%
- residual activity (DDR2 (human)): 105%
- residual activity (EPHA4 (human)): 80.7%
- residual activity (ERBB2 (human)): 91.5%
- residual activity (ERBB4 (human)): 105%
- residual activity (FES (human)): 96%
- residual activity (FGR (human)): 39.2%
- residual activity (KDR (human)): 79.4%
- residual activity (KIT (human)): 51.3%
- residual activity (MAP3K2 (human)): 68.5%
- residual activity (MAP3K7 TAB1 (human)): 79.8%
- residual activity (MAPK1 (human)): 85.1%
- residual activity (MAPK14 (human)): 86.2%
- residual activity (MERTK (human)): 21.4%
- residual activity (NEK11 (human)): 103%
- residual activity (PAK3 (human)): 93.5%
- residual activity (PBK (human)): 104%
- residual activity (PDPK1 (human)): 114%
- residual activity (PHKG2 (human)): 96%
- residual activity (PKN2 (human)): 85.4%
- residual activity (PRKACG (human)): 111%
- residual activity (RAF1 (human)): 114%
- residual activity (RET (human)): 23%
- residual activity (RPS6KA5 KD2 (human)): 94.1%
- residual activity (RPS6KB1 (human)): 83.7%
- residual activity (STK11 (human)): 89.9%
- residual activity (TAOK1 (human)): 41.9%
- residual activity (TAOK2 (human)): 21.9%
- residual activity (TEC (human)): 86.7%
- residual activity (TNK2 (human)): 65.4%
- residual activity (TSSK1B (human)): 21.7%
- residual activity (VRK1 (human)): 87.3%
- residual activity (WEE1 (human)): 81.8%

SMILES: O=C1NC(=O)c2c1c1c3ccccc3n3c1c1c2c2ccccc2n1C1CCC3O1
- residual activity (ACVR1B (human)): 113%
- residual activity (AKT2 (human)): 48.5%
- residual activity (AURKC (human)): 36.5%
- residual activity (CDK1 CCNA2 (human)): 61.7%
- residual activity (CDK4 CCND3 (human)): 22.2%
- residual activity (CDK5 CDK5R1 p25 (human)): 28%
- residual activity (CDK6 CCND1 (human)): 6.06%
- residual activity (CLK3 (human)): 97%
- residual activity (CSNK1D (human)): 93.8%
- residual activity (DAPK2 (human)): 39.4%
- residual activity (DDR2 (human)): 80.1%
- residual activity (EPHA4 (human)): 91.4%
- residual activity (ERBB2 (human)): 98.4%
- residual activity (ERBB4 (human)): 72.5%
- residual activity (FES (human)): 42.1%
- residual activity (FGR (human)): 30.9%
- residual activity (KDR (human)): 4.55%
- residual activity (KIT (human)): 60.8%
- residual activity (MAP3K2 (human)): 14%
- residual activity (MAP3K7 TAB1 (human)): 6.06%
- residual activity (MAPK1 (human)): 88.7%
- residual activity (MAPK14 (human)): 102%
- residual activity (MERTK (human)): 13.6%
- residual activity (NEK11 (human)): 60.6%
- residual activity (PAK3 (human)): 41.7%
- residual activity (PBK (human)): 39.9%
- residual activity (PDPK1 (human)): 10.6%
- residual activity (PHKG2 (human)): 75.6%
- residual activity (PKN2 (human)): 15.9%
- residual activity (PRKACG (human)): 39.8%
- residual activity (RAF1 (human)): 121%
- residual activity (RET (human)): 3.21%
- residual activity (RPS6KA5 KD2 (human)): 9.88%
- residual activity (RPS6KB1 (human)): 2.38%
- residual activity (STK11 (human)): 50.5%
- residual activity (TAOK1 (human)): 66.9%
- residual activity (TAOK2 (human)): 57.4%
- residual activity (TEC (human)): 142%
- residual activity (TNK2 (human)): 2.39%
- residual activity (TSSK1B (human)): 17.7%
- residual activity (VRK1 (human)): 90.2%
- residual activity (WEE1 (human)): 16.9%

SMILES: Nc1ccc2ncnc(NCCc3ccc(Oc4ccccc4)cc3)c2c1
- residual activity (ACVR1B (human)): 101%
- residual activity (AKT2 (human)): 101%
- residual activity (AURKC (human)): 96%
- residual activity (CDK1 CCNA2 (human)): 98.9%
- residual activity (CDK4 CCND3 (human)): 109%
- residual activity (CDK5 CDK5R1 p25 (human)): 90.6%
- residual activity (CDK6 CCND1 (human)): 101%
- residual activity (CLK3 (human)): 117%
- residual activity (CSNK1D (human)): 100%
- residual activity (DAPK2 (human)): 80.4%
- residual activity (DDR2 (human)): 96.8%
- residual activity (EPHA4 (human)): 98.5%
- residual activity (ERBB2 (human)): 108%
- residual activity (ERBB4 (human)): 70.2%
- residual activity (FES (human)): 99.6%
- residual activity (FGR (human)): 101%
- residual activity (KDR (human)): 91.7%
- residual activity (KIT (human)): 99.7%
- residual activity (MAP3K2 (human)): 98.4%
- residual activity (MAP3K7 TAB1 (human)): 96.2%
- residual activity (MAPK1 (human)): 90.1%
- residual activity (MAPK14 (human)): 95.7%
- residual activity (MERTK (human)): 102%
- residual activity (NEK11 (human)): 105%
- residual activity (PAK3 (human)): 102%
- residual activity (PBK (human)): 98.2%
- residual activity (PDPK1 (human)): 105%
- residual activity (PHKG2 (human)): 98.7%
- residual activity (PKN2 (human)): 89.7%
- residual activity (PRKACG (human)): 110%
- residual activity (RAF1 (human)): 98.2%
- residual activity (RET (human)): 101%
- residual activity (RPS6KA5 KD2 (human)): 98.3%
- residual activity (RPS6KB1 (human)): 99.5%
- residual activity (STK11 (human)): 97.6%
- residual activity (TAOK1 (human)): 84.2%
- residual activity (TAOK2 (human)): 102%
- residual activity (TEC (human)): 88.3%
- residual activity (TNK2 (human)): 102%
- residual activity (TSSK1B (human)): 100%
- residual activity (VRK1 (human)): 99.5%
- residual activity (WEE1 (human)): 86.2%

Source: the kinase profiling compilation of Christmann-Franck et al. (2016)
